Assay results: US20220054543A1, “Enteric Use of Potassium Permanganate in Humans and Animals” (priority 2020, published 2022)

Test system: common human coronaviruses (229E, NL63, OC43, and HKU1)
Experiment: enteric administration to humans, treating common human coronavirus infections
Type: in vivo

Measured: effective in treating infections resulting from the common human coronaviruses

Potassium permanganate
effective: adult humans, inhalation by cold-mist inhaler or nebulizer, 3.0 ml of 1:10,000 dilution (0.1 mg/mL solution) per day for three days | adult humans, inhalation by cold-mist inhaler or nebulizer, 3.0 ml of 1:50,000 dilution (0.02 mg/mL solution) per day for three days | adult humans, inhalation by cold-mist inhaler or nebulizer, 3.0 ml of 1:100,000 dilution (0.01 mg/mL solution) per day for three days | humans, intravenous, 10.0 cc per 45.4 kg of 1:10,000 dilution (0.1 mg/mL solution) per day for three days | humans, intravenous, 10.0 cc per 45.4 kg of 1:50,000 dilution (0.02 mg/mL solution) per day for three days | humans, intravenous, 10.0 cc per 45.4 kg of 1:100,000 dilution (0.01 mg/mL solution) per day for three days | humans, oral, 1 mg/kg per day for three days | humans, oral, 1 mg/kg per day on a daily basis (prophylactic) | humans, oral, 5 mg/kg per day for three days | humans, oral, 10 mg/kg per day for three days
